Source: publication PMC9605497, “Potential of Epidermal Growth Factor-like Peptide from the Sea Cucumber Stichopus horrens to Increase the Growth of Human Cells: In Silico Molecular Docking Approach” (Marine Drugs, 2022)

Test system: EGF/PDGF pathway genes
Experiment: qPCR array of EGF/PDGF pathway genes
Assay type: cell-based, human
Set-up: key to expression class: +: Maximum expression; −: Minimum expression; unc.: Unchanged
Conditions: 10 nM, 4 h; for fold change: vs serum-free medium
Method: Cells were seeded at 80,000 cells per well of 24-well plates in 400 µL of complete growth medium. Cells were grown in MEM basal medium supplemented with 10% FBS and 1% antibiotic–antimycotic in a humidified incubator at 37 °C, equilibrated with 5% CO2. After 24 h of culture, the medium was removed, washed once with PBS, replaced with serum-free medium and left to culture for another 16 h. Medium was removed and replaced with corresponding treatment medium each in triplicates; 10 nM and 50 nM of Sh-EGFl-1, 10 nM and 50 nM of rhEGF were used as a positive control and serum-free medium was used as a negative control. Cells were harvested after 4 h. Medium was removed and 200 μL of Trizol reagent (Thermo Scientific, Waltham, MA, USA) was immediately added.
RNA extraction was performed according to Trizol reagent manufacturer’s protocol. An elution volume of 15 μL RNase-free water was added before the concentration and purity were determined using NanoDrop.
A total of 100 ng RNA was used initially for the cDNA synthesis reaction. The reaction was carried out according to RT^2 First Strand Kit’s protocol (Qiagen, Venlo, Netherlands). Genomic DNA was removed according to the manufacturer’s protocol prior to cDNA strand generation.
The 10 μL cDNA of human skin cells was diluted with 91 μL prior to qPCR reaction. Primer pairs of 84 genes involved in the EGF pathway, five housekeeping genes such as ribosomal protein large, P0 (RPL0), glyceraldehyde-3-phosphate-dehydrogenase (GAPDH), beta-actin (ACTB), beta-2-microglobulin (B2M) and hypoxanthine phosphoribosyltransferase 1 (HPRT1), one positive control gene for genomic DNA contamination, three reverse transcription control genes and three PCR-positive controls were included in the Qiagen PAHS-040ZA qPCR array plate (Qiagen, Venlo, Netherlands). A list of all genes analyzed in this study is available in Supplementary Materials Table S7. The mixture reaction was prepared according to the protocol and run using BioRad CFX96TM. Samples of 10 nM rhEGF and 10 nM Sh-EGFl-1 were prepared in duplicates. The following thermal profile was applied: 1 cycle at 95 °C for 10 min, 40 cycles at 95 °C for 15 s, 60 °C for 1 min, with the ramp rate from 95 °C to 60 °C was set at 1 °C every second. The data were then analyzed through Qiagen web portal. Data for serum-free medium were selected as a control group and the differences in gene expression between control and treatment groups were calculated using the 2^(−delta delta CT) method. The difference, known as fold change, was obtained from the delta delta CT values, which are the genes of interest and the average housekeeping genes, followed by the delta delta CT (delta CT (treatment group)—delta CT (control group)).

[1] = IKBKB (IKK), PLC gamma signaling
[2] = PLCG1 (PLC), PLC gamma signaling
[3] = PPP2CA (TSC2), PLC gamma signaling
[4] = RASA1 (p120GAP), MAPK signaling
[5] = RPS6KA5 (p70S6K), MAPK signaling
[6] = RPS6KA5 (p70S6K), PI3K signaling
[7] = RPS6KA5 (p70S6K), PLC gamma signaling
[8] = RPS6KB1 (p70S6K), MAPK signaling
[9] = RPS6KB1 (p70S6K), PI3K signaling
[10] = RPS6KB1 (p70S6K), PLC gamma signaling

## H-MNSDSECPLSHDGYCLHDGVCMYIEALDKYACNCVVGYIGERCQYRDLKWWELR-OH (disulfide) [rhEGF, Recombinant human EGF purchased from Thermo Scientific, reference compound]
qPCR array heat map
  gene expression profile, EGF/PDGF pathway: opposite gene expression profile
AKT1, PI3K signaling
  expression class: −
  fold change: (0.69)
AKT3, PI3K signaling
  expression class: −
  fold change: (0.87)
ATF1, MAPK signaling
  expression class: −
  fold change: (0.87)
ATF2, MAPK signaling
  expression class: −
  fold change: (0.67)
CASP3, MAPK signaling
  expression class: −
  fold change: (0.70)
CASP9, MAPK signaling
  expression class: −
  fold change: (0.63)
CBL, MAPK signaling
  expression class: −
  fold change: (0.96)
CCND1, PI3K signaling
  expression class: −
  fold change: (0.83)
DUSP1, MAPK signaling
  expression class: −
  fold change: (0.50)
DUSP6, MAPK signaling
  expression class: −
  fold change: (0.74)
E1F4E, PI3K signaling
  expression class: +
  fold change: (1.24)
ELK1, JAK-STAT signaling
  expression class: −
  fold change: (0.77)
FOS, JAK-STAT signaling
  expression class: −
  fold change: (1.02)
GAB1, PI3K signaling
  expression class: +
  fold change: (0.88)
GRB2, PI3K signaling
  expression class: −
  fold change: (0.76)
GSK3A, PI3K signaling
  expression class: −
  fold change: (0.75)
GSK3B, PI3K signaling
  expression class: −
  fold change: (0.84)
HRAS, MAPK signaling
  expression class: −
  fold change: (0.62)
IKBKB (IKK), PI3K signaling
  expression class: −
  fold change: (0.73)
[1]
  expression class: −
  fold change: (0.73)
IKBKB, MAPK signaling
  expression class: −
  fold change: (0.73)
JAK1, JAK-STAT signaling
  expression class: −
  fold change: (0.77)
JUN, JAK-STAT signaling
  expression class: unc.
  fold change: (0.98)
MAP2K1 (MEK1), MAPK signaling
  expression class: −
  fold change: (0.74)
MAP2K4 (MKK4), MAPK signaling
  expression class: −
  fold change: (0.51)
MAP2K7 (MKK7), MAPK signaling
  expression class: +
  fold change: (0.95)
MAP3K2 (MEKK2), MAPK signaling
  expression class: −
  fold change: (0.82)
MAPK1 (ERK2), MAPK signaling
  expression class: −
  fold change: (0.76)
MAPK3 (ERK1), MAPK signaling
  expression class: −
  fold change: (0.79)
MAPK8, MAPK signaling
  expression class: −
  fold change: (0.73)
MAPK9, MAPK signaling
  expression class: −
  fold change: (0.54)
MAPK10, MAPK signaling
  expression class: +
  fold change: (1.24)
MKNK1, MAPK signaling
  expression class: −
  fold change: (0.54)
NFATC3, MAPK signaling
  expression class: −
  fold change: (0.96)
NFKB, PI3K signaling
  expression class: −
  fold change: (0.90)
NFKB, PLC gamma signaling
  expression class: −
  fold change: (0.90)
P13KCA, PI3K signaling
  expression class: −
  fold change: (1.08)
PDPK1 (PDK1), PI3K signaling
  expression class: −
  fold change: (0.86)
PIK3R1, PI3K signaling
  expression class: −
  fold change: (0.80)
PIK3R2, PI3K signaling
  expression class: −
  fold change: (0.75)
[2]
  expression class: −
  fold change: (0.89)
[3]
  expression class: −
  fold change: (0.69)
PRKCA, PLC gamma signaling
  expression class: −
  fold change: (0.78)
RAP1A, MAPK signaling
  expression class: −
  fold change: (0.80)
[4]
  expression class: −
  fold change: (0.83)
RHOA, Rho signaling
  expression class: −
  fold change: (0.84)
[5]
  expression class: unc.
  fold change: (0.75)
[6]
  expression class: unc.
  fold change: (0.75)
[7]
  expression class: unc.
  fold change: (0.75)
[8]
  expression class: −
  fold change: (0.68)
[9]
  expression class: −
  fold change: (0.68)
[10]
  expression class: −
  fold change: (0.68)
SHC1, MAPK signaling
  expression class: −
  fold change: (0.80)
SHC1, PI3K signaling
  expression class: −
SRC, JAK-STAT signaling
  expression class: +
  fold change: (1.16)
STAT3, JAK-STAT signaling
  expression class: −
  fold change: (0.89)
STAT5, JAK-STAT signaling
  expression class: −
  fold change: (0.89)
TP53, MAPK signaling
  expression class: unc.
  fold change: (0.82)
TP53, PI3K signaling
  expression class: unc.
  fold change: (0.82)
